For 31 molecules, TGI and GI50 results are on record in PubChem BioAssay (NCI).

Several values for one entry are separate records, joined by “and”; a condition that tells them apart may be missing. Equal values may be shown once.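 Test compounds were applied to cells in 96-well plates for 48 hours at 5 doses. GI50 marks 50% less growth. At the TGI there is no net growth.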

Holding throughout (assay): NCI anticancer screen, dose series, 48 h
In assay [1] the test system is HCT-116 colon.
Assay [2] relates to SF-539 CNS.
The test system of assay [3] is MALME-3M melanoma.
Assay [4] deals with A498 renal.
In assay [5] the test system is HCT-15 colon.
The subject of assay [6] is RXF 393 renal.
Assay [7] relates to SK-MEL-28 melanoma.
Assay [8] relates to CCRF-CEM leukemia.
For assay [9], the system named is U251 CNS.

As to `CN(C)C(=S)/N=c1\ss/c(=N\S(=O)(=O)c2ccccc2)n1N(C)C`, the TGI in [1] was over 100 µM; in [2] it was over 100 µM; in assay [3], over 100 µM; in [4] it was over 100 µM; in [5] it was over 100 µM; in [6], 85 µM. Besides, the TGI in assay [7], in [8] and in assay [9] was over 100 µM in each case.
As for `COC1OC2COC(c3ccccc3)OC2C(O)C1Br` (stereo not drawn), the TGI in assay [1], in assay [2], in assay [3], in [4], in assay [5] and in assay [6] was over 100 µM each time. For the same molecule, the TGI in assay [7], in assay [8] and in assay [9] was over 100 µM in each case.
For the molecule `COc1ccc2nc(NC(=O)C(=O)C(C#N)c3ccc(Cl)c(Cl)c3)sc2c1` (stereo not drawn), the TGI in assay [1], in [2], in assay [3], in [4], in assay [5] and in assay [6] was over 100 µM each time. For the same molecule, the TGI in assay [7], in assay [8] and in [9] was over 100 µM throughout.
Regarding `O=C(O)CCSC(=O)Nc1ccc(N=Nc2ccccc2)cc1`, the TGI in assay [1], in [2], in assay [3], in assay [4], in [5] and in [6] was over 100 µM in each case. Besides, the TGI in [7], in assay [8] and in assay [9] was over 100 µM each time.
Consider `CC12Oc3ccc4ccccc4c3CC1Cc1c(ccc3ccccc13)O2` (stereo not drawn), for which the TGI in [1] is over 100 µM; in [2] it was over 100 µM; in [3] it was 17 µM; in assay [6], 59.8 µM; in assay [7] it was over 100 µM; in assay [9], over 100 µM.
Turning to `Cc1cccc(C(C)(C)C)c1NC(=O)CC1Sc2ccccc2NC1=O` (stereo not drawn), the TGI in assay [1] was 45.1 µM; in assay [2] it was over 100 µM; in assay [3] it was over 100 µM; in [4] it was over 100 µM; in [7] it was over 100 µM; in [8], over 100 µM. Further, the TGI in [9] was over 100 µM.
On to `Nc1n[nH]c(CCc2nc(N)n[nH]2)n1`, for which the TGI in [1], in [2], in [3], in assay [4], in [5] and in assay [6] was over 100 µM each time. The TGI in assay [7], in [8] and in [9] was over 100 µM each time.
On to `O=C1C=CC(CC(=O)c2ccc3ccccc3c2)O1` (stereo not drawn), for which the TGI is 32.3 µM in assay [1]; 33.2 µM in assay [2]; over 100 µM in assay [3]; 46.1 µM in assay [4]; 50.4 µM in assay [5]; 36.6 µM in [6]. Also, the TGI in assay [7] is over 100 µM; in [8], 63.4 µM; in [9] it was 32.1 µM.
As to `Nn1c(N=Nc2c(O)[nH]c3c(Cl)cc(Cl)cc23)n[nH]c1=S`, the TGI in assay [1], in [2], in assay [3], in assay [4], in [5] and in assay [6] was over 100 µM throughout. In addition, the TGI in assay [8] and in assay [9] was over 100 µM in each case.
For the molecule `CC1=CC(=O)N(c2c(C)cccc2Cl)C(C)N1` (stereo not drawn), the TGI in assay [1], in assay [2], in assay [3], in assay [4], in assay [5] and in [6] was over 100 µM throughout. In addition, the TGI in assay [7], in assay [8] and in assay [9] was over 100 µM throughout.
As to `O=C(O)C1=C(C(=O)Nc2ccc(NC(=O)C3=C(C(=O)O)C4C=CC3C4)cc2)C2C=CC1C2`, the TGI in assay [1], in [2], in assay [3], in assay [4], in assay [5] and in assay [6] was over 100 µM in each case. In addition, the TGI in assay [7], in [8] and in assay [9] was over 100 µM throughout.
For `O=C(O)c1ccccc1NC(=O)C1CCCCC1`, the TGI in assay [1], in assay [2], in assay [3], in assay [4], in assay [5] and in assay [7] was over 100 µM throughout. Moreover, the TGI in [8] and in assay [9] was over 100 µM each time.
Take `O=C1C2Nc3ccccc3SC2C(=O)N1c1ccccc1C(F)(F)F` (stereo not drawn): the TGI is over 100 µM in assay [1]; 41 µM in [2]; over 100 µM in [3]; 65.5 µM in [5]; 23.7 µM in assay [6]; over 100 µM in [7]. Further, the TGI in assay [8] is over 100 µM; in assay [9], 45.2 µM.
With `O=C(O)/C=C/C(=O)N1C/C(=C\c2ccccc2)C(=O)/C(=C/c2ccccc2)C1`, the TGI is 3.48 µM in assay [1]; 26.7 µM in assay [2]; 12.3 µM in [3]; 34.5 µM in [4]; 20.6 µM in [5]; 17.5 µM in assay [6]. Besides, the TGI in assay [7] came out at 15.9 µM; in [8], 7.18 µM; in assay [9], 3.79 µM.
Consider `N#CC1=C(Cl)NC(Cl)=C(C#N)C1c1c(Cl)cccc1Cl`, for which the TGI is 34.3 µM in assay [1]; over 100 µM in [2]; over 100 µM in assay [3]; over 100 µM in assay [4]; 29.7 µM in [5]; 59 µM in [6]. Moreover, the TGI is over 100 µM in [7], 54.5 µM in assay [8] and 48.5 µM in assay [9].
Turning to `c1ccc2c(c1)C1=NCCN1c1ccccc1-2`, the TGI in assay [1] came out at 10.4 µM; in [2], 9.69 µM; in assay [3], 6.77 µM; in assay [4], 8.82 µM; in assay [5], 12.2 µM; in assay [6], 6.14 µM. The TGI in [7] was found to be 15.2 µM; in [8] it was 5.98 µM; in [9] it was 14 µM.
In the case of `O=C(Nc1ccn(CCI)c(=O)n1)c1ccccc1`, the TGI in [1], in [2], in assay [3], in [4], in assay [5] and in assay [6] was over 100 µM in each case. Also, the TGI in assay [7], in assay [8] and in assay [9] was over 100 µM throughout.
Regarding `Cc1ccccc1-n1c(C)nc(-c2ccccc2)cc1=O`, the TGI in assay [1], in assay [2], in assay [3], in assay [4], in assay [5] and in assay [6] was over 100 µM each time. Moreover, the TGI in [7], in assay [8] and in [9] was over 100 µM throughout.
In the case of `O=C1c2nc3n(c2C(=O)c2c1nc1n2CCC1)CCC3`, the GI50 in [1] is 4.29 µM; in assay [3], 2 µM. For the same molecule, the TGI in [1] is 9.22 µM; in [2] it was 8.77 µM and 13.5 µM; in [3], 3.54 µM and 2.17 µM; in [4] it was 29.6 µM; in assay [5], 19.2 µM; in assay [6], 9.59 µM. Further, the figures for the TGI in [7], in assay [8] and in assay [9] were 31.3 µM, 31.4 µM and 34 µM, respectively.
Consider `COC(=O)C1=CC2OC1(C)CCC2=O` (stereo not drawn), for which the TGI in [1], in assay [2], in [3], in [5], in [6] and in assay [7] was over 100 µM throughout. In addition, the TGI in [8] and in assay [9] was over 100 µM each time.
In the case of `O=C(NO)c1ccc(O)c(O)c1`, the TGI in assay [1], in assay [2], in assay [3], in assay [4], in [5] and in [6] was over 100 µM throughout. In addition, the TGI in [7], in assay [8] and in assay [9] was over 100 µM each time.
In the case of `O=C(NS(=O)(=O)c1ccccc1)C(Cc1ccccc1)C(Cc1ccccc1)C(=O)NS(=O)(=O)c1ccccc1` (stereo not drawn), the TGI in [1], in assay [2], in assay [3], in assay [4], in assay [6] and in [7] was over 100 µM in each case. Besides, the TGI in assay [8] and in assay [9] was over 100 µM throughout.
As to `CCCCCCC(/C=N/O)C(C)(O)CCC` (stereo not drawn), the TGI in [1], in assay [2], in [3], in assay [4], in assay [5] and in assay [6] was over 100 µM in each case. Moreover, the TGI in [7], in assay [8] and in assay [9] was over 100 µM throughout.
Consider `Cc1cccc2nc3cccc(C(=O)NCCN(C)C)c3nc12`, for which the TGI is 10.8 µM in assay [1]; 1.21 µM in assay [2]; 1.35 µM in [4]; 2.19 µM in assay [5]; 2.99 µM in [6]; 2.93 µM in assay [7]. Also, the TGI was over 100 µM in [8] and 4.61 µM in assay [9].
Consider `COC(=O)CCC(=O)NC1C2CC3CC(C2)CC1C3` (stereo not drawn), for which the TGI in assay [1], in assay [2], in assay [3], in assay [4], in assay [5] and in [6] was over 100 µM in each case. In addition, the TGI in [7], in [8] and in assay [9] was over 100 µM each time.
With `C[C@H]1C(=O)CC[C@]2(C)CCC(C(C)(C)O)CC12O` (stereo partly drawn), the TGI in [1], in assay [2], in assay [3], in [4], in assay [5] and in [6] was over 100 µM throughout. In addition, the TGI in assay [7], in assay [8] and in assay [9] was over 100 µM each time.
For the molecule `O=[N+]([O-])c1ccc(Cl)cc1C1SCc2nc3ccccc3n21` (stereo not drawn), the TGI in assay [1] is over 100 µM; in assay [2], over 100 µM; in assay [3], over 100 µM; in assay [4], 54 µM; in assay [5] it was over 100 µM; in assay [6] it was 73.3 µM. For the same molecule, the TGI in [7], in [8] and in assay [9] was over 100 µM each time.
As to `COc1ccc2c(c1OC)C(=O)c1cnccc1C2=O`, the TGI in assay [1], in assay [2], in assay [3], in assay [5], in assay [6] and in assay [7] was over 100 µM each time. Also, the TGI in [8] and in assay [9] was over 100 µM throughout.
For `CCC(Oc1ccc(OC)c2ccccc(=O)c12)C(=O)O` (stereo not drawn), the TGI in [1], in assay [2], in assay [3], in assay [4], in assay [5] and in [6] was over 100 µM throughout. Also, the TGI in [7], in [8] and in [9] was over 100 µM throughout.
Turning to `O=C(/C=C1/Nc2ccc([N+](=O)[O-])cc2NC1O)c1cccc([N+](=O)[O-])c1` (stereo not drawn), the TGI in assay [1] was over 100 µM; in assay [2], 87.2 µM; in [3], over 100 µM; in assay [4], over 100 µM; in assay [5], over 100 µM; in [6] it was 65.4 µM. Besides, the TGI in assay [7], in [8] and in assay [9] was over 100 µM each time.
On to `CN1CC(=O)N(C)c2nc[nH]c2C1=O`, for which the TGI in assay [2], in [3], in [4], in [5], in [6] and in assay [7] was over 100 µM in each case. Besides, the TGI in assay [8] and in assay [9] was over 100 µM throughout.
